# Measurements taken from EP0048613B1, “4-0-Substituted -2-deoxystreptamine aminoglycoside derivatives, their preparation and formulations containing them” (ELI LILLY AND COMPANY, priority 1980, dated 1982).
# Test system: B. subtilis X12
# Experiment: Bioautography of thin layer chromatography plate
# Type: cell-based
# Conditions: bioautography of TLC plate of the reaction mixture against B. subtilis X12
# Method: Apramycin (54 mg, 0.1 mmol) was dissolved in water (1 ml). Nickel acetate tetrahydrate (100 mg, 0.4 mmol) was added and this solution was diluted with dimethylformamide (5 mi). The mixture was treated with 1-iodo-n-butane (0.115 ml, 1 mmol) and this reaction mixture was stirred at room temperature for 4 days.
row,Substance,zone of inhibition
1,2'-N-Benzylapramycin [Example 7],a zone of inhibition
2,2'-N-Allylapramycin [Example 8],a good zone of inhibition
3,2'-N-(n-Butyl)apramycin [Example 6],a zone of inhibition
